Values quoted from earlier work, collected in patent publication US6306425A, “Injectable naltrexone microsphere compositions and their use in reducing consumption of heroin and alcohol” (Southern Research Institute, priority 2000, dated 2001).

With `O=C1CC[C@@]2(O)[C@H]3Cc4ccc(O)c5c4[C@@]2(CCN3CC2CC2)[C@H]1O5` [naltrexone] as the molecule, how does the “Control of amount of alcohol consumed and number of binges” value (alcoholics) read?
The value was “serves to enhance the control of the alcoholic in the amount of alcohol consumed and the number of binges”.

What about the Safety (administered levels in excess of those of the subject compositions) of the same molecule?
Its Safety is “found to be safe”.

What about the Hepatotoxicity (high dosages) of the same molecule?
Its Hepatotoxicity is “some reports of hepatotoxicity”.

What about the “Population with adverse reactions” value (oral naltrexone) of the same molecule?
Its value is “about 10%”.
